Results as given in patent US20070259948A1, “Compounds with antifungal properties and process thereof” (priority 2006, published 2007).
Converted amounts (≈) assume the structure as drawn.

Tests used:
Assay in all cases: Antifungal susceptibility testing (minimum inhibitory concentration), soyabean casein digest broth
Type in all cases: cell-based
A. niger = conditions: Aspergillus niger; end points after 48 hours, visually / spectrophotometer; NI till x = no inhibition up to x; read-out: Activity against organisms In μg/ml, A. niger (minimum inhibitory concentration)
Experimental: (§1) In vitro evaluation of antifungal activity can be performed by determining the minimum inhibitory concentration. Anti-fungal susceptibility testing of these anti-fungal compounds was done by conventional method using soyabean casein digest broth. Known anti-fungal agents like Fluconazole and amphotericin-B were used as positive control. End points were determined after 48 hours visually and by using Spectrophotometer wherever necessary. Different dilutions were tried and the set of experiments.

C. albicans = conditions: Candida albicans; end points after 48 hours, visually / spectrophotometer; NI till x = no inhibition up to x; read-out: Activity against organisms In μg/ml, C. albicans (minimum inhibitory concentration)
Experimental: as §1

F. proliferatum = conditions: Fusarium proliferatum; end points after 48 hours, visually / spectrophotometer; NI till x = no inhibition up to x; read-out: Activity against organisms In μg/ml, F. proliferatum (minimum inhibitory concentration)
Experimental: as §1

MIC (A. niger): > 4 µg/mL | MIC (C. albicans): 4 to 8 µg/mL (≈ 7.05 to 14.1 µM) | MIC (F. proliferatum): > 4 µg/mL
Compound: COc1ccc(C2=CC(COC(=O)c3cc(Br)c(Br)s3)OC2=O)cc1Br (stereo not drawn) [FE, 4-(3-bromo-4-methoxyphenyl)-5-oxo-2,5-dihydrofuran-2-ylmethyl 4,5-dibromothiophene-2-carboxylate]
